As usually defined, the CC50 is the concentration that lowers cell viability or growth by half.

The record followed here is PMC12604929, “Tumor-specific cytotoxicity of pyrazole-based chalcone derivatives in human oral squamous cell carcinoma cell lines” (Turkish Journal of Biology, 2025).

A short description of data set [1]: MTT cytotoxicity assay, HPC. It counts as cell-based, human. The conditions noted are these: female, human, human pulp cells (HPC), normal oral cells, average of three determinations. On the technique in general: Tetrazolium dyes change colour on reduction, which living cells bring about.
Method: (§2) The viable cell number was determined in triplicate by the MTT method, following the approach adopted in previous studies ([Nagai et al., 2018]; [Shi et al., 2018] ). Briefly, the cells were incubated for 2 h with 0.2 mg/mL of MTT, and the formed formazan was dissolved with 0.1 mL of DMSO to determine the relative viable cell number at 560 nm.
(§3) Cells were inoculated at 2×10^3 cells/0.1 ml in a 96-microwell plate. […] Cells were incubated further for 48 h and the relative viable cell number was then determined by the MTT method and expressed as the absorbance of the cell lysate at 560 nm, using a microplate reader (Infinite F50R; TECAN, Männedorf, Switzerland) [49, 50]. Control cells were treated with the same amounts of DMSO and the cell damage induced by DMSO was subtracted from that induced by test agents. The concentration of compound that reduced the viable cell number by 50% (CC50) was determined from the dose–response curve and the mean value of CC50 for each cell type was calculated from triplicate assays.
(§4) All of these cells were cultured at 37°C in DMEM supplemented with 10% heat-inactivated fetal bovine serum, 100 units/ml, penicillin G and 100 µg/ml streptomycin sulfate under a humidified 5% CO2 atmosphere.
In data set [2] the test system is Ca9-22 cells (OSCC, gingival tissue). Kind of data set: MTT cytotoxicity assay, Ca9-22. The conditions noted are these: for TS (C/A) tumor-selectivity index: CC50 HGF / CC50 Ca9-22 (both gingival); for CC50: Homo sapiens, Ca9-22, OSCC, 48 h, MTT, average of three determinations; for PSE (C/A^2)x100 potency-selectivity expression: HGF vs Ca9-22 (both gingival). It counts as cell-based, human.
Method: as §2, §3
(§5) Human oral squamous cell carcinoma (OSCC) cell lines [Ca9-22 (derived from gingival tissue); and HSC-2, HSC-3, HSC-4 (derived from tongue)] were purchased from Riken Cell Bank (Tsukuba, Japan). All of these cells were cultured at 37°C in DMEM supplemented with 10% heat-inactivated fetal bovine serum, 100 units/ml, penicillin G and 100 µg/ml streptomycin sulfate under a humidified 5% CO2 atmosphere. Cell morphology was checked periodically under a light microscope (EVOS FL; Thermo Fisher Scientific, Waltham, MA, USA).

A short description of data set [3]: MTT cytotoxicity assay, HGF. It counts as cell-based, human. The conditions noted are these: human, human gingival fibroblasts (HGF), normal oral cells, average of three determinations.
Method: as §2, §3, §5
Data set [4] has as its system HSC-3 cells (OSCC, tongue). Nature of the data set: MTT cytotoxicity assay, HSC-3. It counts as cell-based, human. The following applies: for CC50: Homo sapiens, HSC-3, OSCC, 48 h, MTT, average of three determinations.
Method: as §2, §3, §5
The nature of data set [5]: MTT cytotoxicity, three normal oral cell types together (mean). It counts as cell-based, human. The following applies: female, human; mean of HGF, HPLF, HPC; read-out: CC50 normal oral cells mean (D). The source says: (§1) Estimation of CC50 values. […] The mean pCC50 values for normal cells and tumor cell lines were defined as N and T, respectively.
Data set [6] has as its system HSC-4 cells (OSCC, tongue). Kind of data set: MTT cytotoxicity assay, HSC-4. The following applies: Homo sapiens, HSC-4, 48 h, average of three determinations. It counts as cell-based, human.
Method: as §2, §3, §5
The nature of data set [7]: MTT cytotoxicity assay, HPLF. The conditions noted are these: female, human, normal oral cells, average of three determinations. It counts as cell-based, human.
Method: as §2, §3, §4
Data set [8] has as its system human OSCC cell lines (Ca9-22, HSC-2, HSC-3, HSC-4). Nature of the data set: MTT cytotoxicity, four OSCC cell lines together (mean, TS, PSE, type of growth inhibition). It counts as cell-based. The following applies: for CC50: Homo sapiens, mean of Ca9-22, HSC-2, HSC-3, HSC-4, read-out: CC50 OSCC mean (B); for type of growth inhibition on the OSCC cell lines: from dose-response curves, Figure 4, cytostatic = without complete cytotoxicity, cytotoxic = complete cell death; for TS (D/B) tumor-selectivity index: mean CC50 normal cells / mean CC50 OSCC cell lines. As to the method: TS was calculated using the following equation: TS=mean CC50 against three normal oral cell types/mean CC50 against four OSCC cell lines (HGF, HPLF, HPC vs. Ca9-22, HSC-2, HSC-3, HSC-4). Since both Ca9-22 and HGF cells were derived from the gingival tissue, the relative sensitivity of these cells was also compared (as: CC50 against HGF/ CC50 against Ca9-22).
PSE was calculated by the following equation: PSE=mean CC50 against three normal oral cell types/(CC50 against four OSCC cell lines)2 × 100 (HGF, HPLF, HPC vs. Ca9-22, HSC-2, HSC-3, HSC-4); and as CC50 against HGF/(CC50 against Ca9-22)2 × 100 using the pair of cell types from the same tissue (gingiva) (see Table 1).
as §1

Data set [9] concerns HSC-2 cells (OSCC, tongue). Kind of data set: MTT cytotoxicity assay, HSC-2. The following applies: Homo sapiens, HSC-2, 48 h, read-out: CC50 HSC-2.
Method: as §2, §3, §5
A further data set has as its system HSC-2 cells. Kind of data set: Cell-cycle analysis (propidium iodide, cell sorting). It counts as cell-based, human. The following applies: HSC-2, 24 h, 1 μM; control 1.9 %. How it is done:
Cell-cycle analysis was performed following the process described in the literature ([Kantoh et al., 2010]; [Nagai et al., 2018]; [Shi et al., 2018]), details of which are presented in a supplementary file. Briefly, cells (approximately 10^6 in number) were fixed with paraformaldehyde in PBS(−) and treated with RNase A. After staining with propidium iodide in the presence of 0.01% Nonidet-40 to prevent cell aggregation, the cells were filtered through Falcon cell strainers and then subjected to cell sorting, analyzed with Cell Sorter Software (version 2.1.2) (SONY Imaging Products and Solution Inc., Kanagawa, Japan).
HSC-2 cells were incubated for 24 h with actinomycin D (Act.D) (positive control of apoptosis induction) or MS4, 7, or 8, or without treatment (control), and subjected to cell cycle analysis. […] D (1 μM) (p < 0.05) from 1.9 % to 12.5%. […] The cell cycle analysis was performed only with HSC-2 cells; therefore, experiments with other OSCC cell lines should be conducted to support the generalization of our findings.
Treated and untreated cells (approximately 10^6 cells) were harvested, fixed with 1% paraformaldehyde in PBS without calcium and magnesium ions [PBS(−)]. Fixed cells were then washed twice with PBS(−) and treated for 30 min with 400 μl of 0.2 mg/ml RNase A (preheated for 10 min at 100 °C to inactivate DNase) to degrade RNA. Cells were then washed twice with PBS(−) and stained for 15 min with 0.01% propidium iodide (PI) in the presence of 0.01% NP-40 in PBS(−) to prevent cell aggregation. After filtering through Falcon® cell strainers ([…]) (Corning, NY, USA) to remove aggregated cells, PI-stained cells were subjected to cell sorting (SH800 Series; SONY Imaging Products and Solutions Inc., Kanagawa, Japan). Cell-cycle analysis was performed with Cell Sorter Software version 2.1.2. (SONY Imaging Products and Solution Inc.).

Numbered stars: 1 amine (or outer) side, 2 acyl side, 3 side chain; on linkers, the order of the positions; unused ones are H or OH. Bridge positions count the residues as written; N and C are the ends. Square brackets hold non-standard residues; d marks the D form. Peptide text beside a SMILES is read from it. I, II: the chains in the order shown. Actinocin(9to1) = Cc1c2oc3c(C)ccc(C(=O)[*:1])c3nc-2c(C(=O)[*:2])c(N)c1=O; NMeV = CN[C@H](C(=O)O)C(C)C; Sar = CNCC(=O)O

Turning to `C/C(=N\Nc1ccc(S(N)(=O)=O)cc1)c1ccccc1` [MS1, (E)-4-(2-(1-phenylethylidene)hydrazinyl)benzenesulfonamide], the CC50 at 48 h was 51 µM in data set [1], 50.7 µM in [3], 116 µM in data set [5] and 246 µM in [7]. The “TS (C/A) tumor-selectivity index” value in data set [2] is recorded as 2.5. Also, the 50% cytotoxic concentration (CC50) turned out to be 20 µM in data set [2]; 53.7 µM in [4]; 15.7 µM in data set [6]; 25.9 µM in data set [8]; 14.3 µM in data set [9]. In addition, in data set [8], the “type of growth inhibition on the OSCC cell lines” value (“type of growth inhibition” for short) was “cytostatic effects”. Besides, the “TS (D/B) tumor-selectivity index” value in data set [8] was 4.5.
Turning to `O=c1[nH]cc(F)c(=O)[nH]1` [Compound 5-FU, 5-fluorouracil, reference compound], the “TS (C/A) tumor-selectivity index” value in data set [2] is listed as greater than 30.3. Moreover, in [8], the “type of growth inhibition” value is given as “cytostatic effects” and the “TS (D/B) tumor-selectivity index” value is listed as greater than 28.6.
`Cc1c2oc3c(C)ccc(C(=O)N[C@@H]4C(=O)N[C@H](C(C)C)C(=O)N5CCC[C@H]5C(=O)N(C)CC(=O)N(C)[C@@H](C(C)C)C(=O)O[C@@H]4C)c3nc-2c(C(=O)N[C@@H]2C(=O)N[C@H](C(C)C)C(=O)N3CCC[C@H]3C(=O)N(C)CC(=O)N(C)[C@@H](C(C)C)C(=O)O[C@@H]2C)c(N)c1=O` [Act.D, actinomycin D, reference compound] (I: T[dV]P[Sar][NMeV] / II: T[dV]P[Sar][NMeV]; ester I:1-I:C, II:1-II:C; linker I:N-II:N via Actinocin(9to1)): the subG1 cell population in the data set with HSC-2 cells is 12.5%.
Take `COc1cccc2c1C(=O)c1c(O)c3c(c(O)c1C2=O)C[C@@](O)(C(=O)CO)C[C@@H]3O[C@H]1C[C@H](N)[C@H](O)[C@H](C)O1` [DXR, doxorubicin, reference compound]: the CC50 at 48 h in data set [1] was 9.2 µM; in data set [3], greater than 10 µM; in [5], greater than 9.7 µM; in data set [7], greater than 10 µM. Moreover, the “TS (C/A) tumor-selectivity index” value in [2] is given as greater than 45.5. Moreover, the CC50 in data set [2] worked out at 0.22 µM; in [4], 0.29 µM; in [6], 0.09 µM; in data set [8] it was 0.18 µM; in data set [9], 0.12 µM. For the same compound, the “type of growth inhibition” value in data set [8] is listed as “cytotoxic effects”. The “TS (D/B) tumor-selectivity index” value in data set [8] is greater than 54.9.
For `COc1ccc(C(=O)/C=C/c2cn(-c3ccc(S(N)(=O)=O)cc3)nc2-c2ccccc2)cc1OC` [MS9, (E)-4-(4-(3-(3,4-Dimethoxyphenyl)-3-oxoprop-1-en-1-yl)-3-phenyl-1H-pyrazol-1-yl)benzenesulfonamide], the cytotoxic concentration (CC50) at 48 h in data set [1], in data set [3], in data set [5] and in [7] was greater than 400 µM each time. For the same compound, the “TS (C/A) tumor-selectivity index” value in data set [2] was greater than 40.1. Moreover, the CC50 in data set [2] was 10 µM; in data set [4], 35 µM; in [6], 83 µM; in data set [8], 44.6 µM; in data set [9], 50.3 µM. Further, the “type of growth inhibition” value in data set [8] was “mixed effects”. In addition, the “TS (D/B) tumor-selectivity index” value in data set [8] was greater than 9.0.
Consider `Cc1ccc(C(=O)/C=C/c2cn(-c3ccc(S(N)(=O)=O)cc3)nc2-c2ccccc2)cc1` [MS5, (E)-4-(4-(3-Oxo-3-(p-tolyl)prop-1-en-1-yl)-3-phenyl-1H-pyrazol-1-yl)benzenesulfonamide], for which the CC50 at 48 h was 30.3 µM in [1], 145 µM in data set [3], greater than 192 µM in data set [5] and greater than 400 µM in [7]. In addition, the “TS (C/A) tumor-selectivity index” value in data set [2] is given as 88.8. In data set [2], the “PSE (C/A^2)x100 potency-selectivity expression” value stood at 5426. The CC50 stood at 1.6 µM in data set [2]; 34.7 µM in [4]; 3.1 µM in data set [6]; 10.1 µM in [8]; 0.9 µM in data set [9]. Besides, in data set [8], the “type of growth inhibition” value is reported as “cytostatic effects”. Further, the “TS (D/B) tumor-selectivity index” value in data set [8] is recorded as greater than 19.1.
`CN(C)C=NS(=O)(=O)c1ccc(-n2cc(C=O)c(-c3ccccc3)n2)cc1` [MS2]: the CC50 at 48 h turned out to be 214 µM in data set [1], 245 µM in [3], 241 µM in [5] and 262 µM in data set [7]. The “TS (C/A) tumor-selectivity index” value in data set [2] is 7.1. The half-maximal cytotoxic concentration (CC50) worked out at 34.3 µM in data set [2]; 74.3 µM in data set [4]; 63 µM in data set [6]; 53.3 µM in data set [8]; 41.3 µM in [9]. The “type of growth inhibition” value in data set [8] is on record as “cytotoxic effects”. For the same compound, the “TS (D/B) tumor-selectivity index” value in data set [8] is reported as 4.5.
With `COc1ccc(C(=O)/C=C/c2cn(-c3ccc(S(N)(=O)=O)cc3)nc2-c2ccccc2)cc1` [MS6, (E)-4-(4-(3-(4-Methoxyphenyl)-3-oxoprop-1-en-1-yl)-3-phenyl-1H-pyrazol-1-yl)benzenesulfonamide], the cytotoxic concentration (CC50) at 48 h was 51.9 µM in data set [1], 209 µM in data set [3], 120 µM in data set [5] and 99.7 µM in data set [7]. The “TS (C/A) tumor-selectivity index” value in [2] stood at 66.5. Further, in data set [2], the “PSE (C/A^2)x100 potency-selectivity expression” value is reported as 2115. Moreover, the 50% cytotoxic concentration (CC50) was 3.1 µM in [2]; 3.6 µM in data set [4]; 3.3 µM in data set [6]; 3.5 µM in data set [8]; 4.1 µM in data set [9]. Also, the “increase of cytotoxicity against HSC-3 compared to MS4” value in data set [4] (relative to unsubstituted phenyl derivative MS4) is recorded as 1.5–2 times. For the same compound, the “type of growth inhibition” value in data set [8] is “cytotoxic effects”. Besides, in data set [8], the “TS (D/B) tumor-selectivity index” value is on record as 33.9.
With `NS(=O)(=O)c1ccc(-n2cc(/C=C/C(=O)c3cccs3)c(-c3ccccc3)n2)cc1` [MS10, (E)-4-(4-(3-Oxo-3-(thiophen-2-yl)prop-1-en-1-yl)-3-phenyl-1H-pyrazol-1-yl)benzenesulfonamide], the cytotoxic concentration (CC50) at 48 h was found to be 6.7 µM in data set [1], 16.6 µM in data set [3], 48 µM in data set [5] and 121 µM in data set [7]. In data set [2], the “TS (C/A) tumor-selectivity index” value is 26.4. Also, in data set [2], the “PSE (C/A^2)x100 potency-selectivity expression” value came out at 4191. Also, the CC50 in data set [2] was 0.63 µM; in data set [4], 4.63 µM; in [6] it was 1.78 µM; in [8], 1.86 µM; in data set [9], 0.38 µM. The “type of growth inhibition” value in data set [8] was “mixed effects”. Further, the “TS (D/B) tumor-selectivity index” value in data set [8] was found to be 25.9.
Consider `NS(=O)(=O)c1ccc(-n2cc(C=O)c(-c3ccccc3)n2)cc1` [MS3, 4-(4-formyl-3-phenyl-1H-pyrazol-1-yl) benzenesulfonamide], for which the CC50 at 48 h in [1] came to 221 µM; in data set [3], 253 µM; in [5], 230 µM; in data set [7], 217 µM. For the same compound, the “TS (C/A) tumor-selectivity index” value in [2] is reported as 7.8. The CC50 in data set [2] worked out at 32.3 µM; in data set [4] it was 51.7 µM; in [6] it was 46.3 µM; in data set [8], 48.6 µM; in [9], 64 µM. In addition, the “type of growth inhibition” value in data set [8] is recorded as “cytotoxic effects”. Also, the “TS (D/B) tumor-selectivity index” value in data set [8] is 4.7.
